Experimental data taken from patent US20070249620A1, “Urea Derivative” (priority 2004, published 2007).

Tests used:
mouse DGAT1 = target: T1, mouse DGAT1 (Mus musculus, UniProt Q9Z2A7); assay: DGAT1 inhibitory effect test (microsome fraction, [14C]-oleoyl-CoA, triglyceride radioactivity by TLC); assay type: biochemical; conditions: 0.5 h; concentration of the test compound 0.1 μg/ml; mouse DGAT1 microsomes, 23° C., 30 minutes; read-out: Inhibitory ratio
T1 construct: made in house; host or cells: insect cells (High Five, Sf9, Sf21, etc.), baculovirus expression system (Invitrogen)
T1 sequence (Q9Z2A7 1-498): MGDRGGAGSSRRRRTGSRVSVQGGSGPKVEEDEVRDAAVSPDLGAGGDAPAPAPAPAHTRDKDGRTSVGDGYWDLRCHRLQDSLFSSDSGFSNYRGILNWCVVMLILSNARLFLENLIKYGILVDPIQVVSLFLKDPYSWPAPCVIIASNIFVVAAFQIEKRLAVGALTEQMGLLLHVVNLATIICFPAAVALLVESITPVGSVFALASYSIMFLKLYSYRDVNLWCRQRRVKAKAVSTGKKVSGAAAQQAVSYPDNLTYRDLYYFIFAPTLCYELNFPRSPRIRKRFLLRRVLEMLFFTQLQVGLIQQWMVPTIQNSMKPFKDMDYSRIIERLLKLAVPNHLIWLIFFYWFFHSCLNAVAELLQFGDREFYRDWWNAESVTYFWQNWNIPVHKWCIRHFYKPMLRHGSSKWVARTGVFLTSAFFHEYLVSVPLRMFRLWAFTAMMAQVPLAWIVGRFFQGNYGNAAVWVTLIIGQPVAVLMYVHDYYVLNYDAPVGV
How it was run: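 Baculovirus-expressed mouse DGAT1 insect-cell microsomes (10 μg) were incubated 30 min at 23 °C, pH 8.0, with 0.5 mM 1,2-dioleoyl-sn-glycerol, 30 μM [14C]-oleoyl-CoA and 0.5% Triton X-100. [14C]-triglyceride was quantified after heptane extraction and TLC. Percent inhibition was taken against vehicle control, with 0-min background subtracted.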

Row | SMILES | melting point | inhibition at 0.1 µg/mL (mouse DGAT1)
1 | O=C(Nc1ccc(C2=CCN(C(=O)Nc3ccc(OCCO)cc3Cl)CC2)cc1)Nc1ccccc1F [Example 260, 4-{4-[3-(2-fluoro-phenyl)-ureido]-phenyl}-3,6-dihydro-2H-pyridine-1-carboxylic acid [2-chloro-4-(2-hydroxy-ethoxy)-phenyl]-amide] | 173 to 178 °C | ≥ 50%
2 | CCOc1ccc(C)cc1NC(=O)Nc1ccc(N2CCN(C(=O)Nc3c(F)cccc3C(F)(F)F)CC2)cc1 [Example 119, 4-{4-[3-(2-ethoxy-5-methyl-phenyl)-ureido]-phenyl}-piperazine-1-carboxylic acid (2-fluoro-6-trifluoromethyl-phenyl)-amide] | 144 to 146 °C | ≥ 50%
3 | CCOc1ccc(C)cc1NC(=O)Nc1ccc(N2CCN(C(=O)Nc3c(C)cccc3Cl)CC2)cc1 [Example 85, 4-{4-[3-(2-ethoxy-5-methyl-phenyl)-ureido]-phenyl}-piperazine-1-carboxylic acid (2-chloro-6-methyl-phenyl)-amide] | 157 to 159 °C | ≥ 50%
4 | CCOc1ccc(C)cc1NC(=O)Nc1ccc(N2CCN(C(=O)Nc3c(C)cccc3C)CC2)cc1 [Example 118, 4-{4-[3-(2-ethoxy-5-methyl-phenyl)-ureido]-phenyl}-piperazine-1-carboxylic acid (2,6-dimethyl-phenyl)-amide] | 222 to 225 °C | ≥ 50%
5 | Cc1ccc(C)c(NC(=O)Nc2ccc(N3CCN(C(=O)Nc4c(C)cccc4Cl)CC3)cc2)c1 [Example 131, 4-{4-[3-(2,5-dimethyl-phenyl)-ureido]-phenyl}-piperazine-1-carboxylic acid (2-chloro-6-methyl-phenyl)-amide] | 251 to 253 °C | ≥ 50%
6 | COc1ccc(C)cc1NC(=O)Nc1ccc(N2CCN(C(=O)Nc3ccc(OCC(O)CO)cc3C)CC2)cc1 (centres unmarked) [Example 276, 4-{4-[3-(2-methoxy-5-methyl-phenyl)-ureido]-phenyl}-piperazine-1-carboxylic acid [4-(2,3-dihydroxy-propoxy)-2-methyl-phenyl]-amide] | 148 to 150 °C | ≥ 50%
7 | Cc1ccc(Cl)c(NC(=O)Nc2ccc(N3CCN(C(=O)Nc4c(C)cccc4Cl)CC3)cc2)c1 [Example 165, 4-{4-[3-(2-chloro-5-methyl-phenyl)-ureido]-phenyl}-piperazine-1-carboxylic acid (2-chloro-6-methyl-phenyl)-amide] | > 260 °C (dec.) | ≥ 50%
8 | CCOc1ccc(C)cc1NC(=O)Nc1ccc(N2CCN(C(=O)Nc3ccc(OC)cc3C)CC2)cc1 [Example 111, 4-{4-[3-(2-ethoxy-5-methyl-phenyl)-ureido]-phenyl}-piperazine-1-carboxylic acid (4-methoxy-2-methyl-phenyl)-amide] | 202 to 204 °C | ≥ 50%
9 | COc1ccc(Cl)cc1NC(=O)Nc1ccc(N2CCN(C(=O)Nc3ncccc3C)CC2)nc1 [Example 308, 4-{5-[3-(5-chloro-2-methoxy-phenyl)-ureido]-pyridin-2-yl}-piperazine-1-carboxylic acid (3-methyl-pyridin-2-yl)-amide] | 203 to 205 °C | ≥ 50%
10 | O=C(Nc1ccc(N2CCN(C(=O)Nc3ccc(OCC(O)CO)cc3Cl)CC2)cc1)Nc1ccccc1F (centres unmarked) [Example 278, 4-{4-[3-(2-fluoro-phenyl)-ureido]-phenyl}-piperazine-1-carboxylic acid [2-chloro-4-(2,3-dihydroxy-propoxy)-phenyl]-amide] | 189 to 190 °C | ≥ 50%
11 | COc1cccc(NC(=O)Nc2ccc(N3CCN(C(=O)Nc4ccc(OCCO)cc4C(F)(F)F)CC3)cc2)c1OC [Example 247, 4-{4-[3-(2,3-dimethoxy-phenyl)-ureido]-phenyl}-piperazine-1-carboxylic acid [4-(2-hydroxy-ethoxy)-2-trifluoromethyl-phenyl]-amide] | 135 to 138 °C | ≥ 50%
12 | CCOc1ccccc1NC(=O)Nc1ccc(N2CCN(C(=O)Nc3ccccc3C(F)(F)F)CC2)cc1 [Example 80, 4-{4-[3-(2-ethoxy-phenyl)-ureido]-phenyl}-piperazine-1-carboxylic acid (2-trifluoromethyl-phenyl)-amide] | 201 to 203 °C | ≥ 50%
13 | COc1ccc(C)cc1NC(=O)Nc1ccc(N2CCN(C(=O)Nc3ccc(NC(C)=O)cc3Cl)CC2)cc1 [Example 169, 4-{4-[3-(2-methoxy-5-methyl-phenyl)-ureido]-phenyl}-piperazine-1-carboxylic acid (4-acetylamino-2-chloro-phenyl)-amide] | 155 to 157 °C | ≥ 50%
14 | COc1ccccc1NC(=O)Nc1ccc(N2CCN(C(=O)Nc3ncccc3C)CC2)cc1 [Example 309, 4-{4-[3-(2-methoxy-phenyl)-ureido]-phenyl}-piperazine-1-carboxylic acid (3-methyl-pyridin-2-yl)-amide] | 207 to 209 °C | ≥ 50%
15 | COc1ccc(C)cc1NC(=O)Nc1ccc(N2CCN(C(=O)Nc3ccc(NC(C)=O)cc3C(F)(F)F)CC2)nc1 [Example 188, 4-{5-[3-(2-methoxy-5-methyl-phenyl)-ureido]-pyridin-2-yl}-piperazine-1-carboxylic acid (4-acetylamino-2-trifluoromethyl-phenyl)-amide] | 175 to 177 °C | ≥ 50%
16 | COc1ccc(F)cc1NC(=O)Nc1ccc(N2CCN(C(=O)Nc3c(C)cccc3Cl)CC2)nc1 [Example 148, 4-{5-[3-(5-fluoro-2-methoxy-phenyl)-ureido]-pyridin-2-yl}-piperazine-1-carboxylic acid (2-chloro-6-methyl-phenyl)-amide] | 227 to 228 °C | ≥ 50%
17 | COc1ccc(F)cc1NC(=O)Nc1ccc(N2CCN(C(=O)Nc3c(C)cccc3C)CC2)nc1 [Example 149, 4-{5-[3-(5-fluoro-2-methoxy-phenyl)-ureido]-pyridin-2-yl}-piperazine-1-carboxylic acid (2,6-dimethyl-phenyl)-amide] | 226 to 228 °C | ≥ 50%
18 | O=C(Nc1ccc(N2CCN(C(=O)Nc3ccc(OCCO)cc3C(F)(F)F)CC2)c(Cl)c1)Nc1ccccc1F [Example 221, 4-{2-chloro-4-[3-(2-fluoro-phenyl)-ureido]-phenyl}-piperazine-1-carboxylic acid [4-(2-hydroxy-ethoxy)-2-trifluoromethyl-phenyl]-amide] | 199 to 200 °C | ≥ 50%
19 | COc1ccc(NC(=O)N2CCN(c3ccc(NC(=O)Nc4cc(Cl)ccc4OC)cc3)CC2)c(C)c1 [Example 109, 4-{4-[3-(5-chloro-2-methoxy-phenyl)-ureido]-phenyl}-piperazine-1-carboxylic acid (4-methoxy-2-methyl-phenyl)-amide] | 225 to 226 °C | ≥ 50%
20 | COc1ccc(C)cc1NC(=O)Nc1ccc(N2CCN(C(=O)Nc3ccc(Br)cc3Cl)CC2)cc1 [Example 129, 4-{4-[3-(2-methoxy-5-methyl-phenyl)-ureido]-phenyl}-piperazine-1-carboxylic acid (4-bromo-2-chloro-phenyl)-amide] | 140 to 142 °C | ≥ 50%
21 | COc1ccc(C)cc1NC(=O)Nc1ccc(N2CCN(C(=O)C(O)c3ccccc3Cl)CC2)nc1 (centres unmarked) [Example 380, 1-(6-{4-[2-(2-chloro-phenyl)-2-hydroxy-acetyl]-piperazin-1-yl}-pyridin-3-yl)-3-(2-methoxy-5-methyl-phenyl)-urea] | 118 to 120 °C | ≥ 50%
22 | CC(C)c1ccc(NC(=O)Nc2ccc(N3CCN(C(=O)OC(C)(C)C)CC3)cc2)cc1 [Example 22, 4-{4-[3-(4-isopropyl-phenyl)-ureido]-phenyl}-piperazine-1-carboxylic acid tert-butyl ester] | 210 °C | ≥ 50%
23 | O=C(Nc1ccc(N2CCN(C(=O)C(O)c3ccc(O)cc3Cl)CC2)nc1)Nc1ccccc1F (centres unmarked) [Example 379, 1-(6-{4-[2-(2-chloro-4-hydroxy-phenyl)-2-hydroxy-acetyl]-piperazin-1-yl}-pyridin-3-yl)-3-(2-fluoro-phenyl)-urea] | 133 to 135 °C | ≥ 50%
24 | COc1ccc(C)cc1NC(=O)Nc1ccc(N2CCN(C(=O)Nc3ccccc3C(F)(F)F)CC2)cc1 [Example 53, 4-{4-[3-(2-methoxy-5-methyl-phenyl)-ureido]-phenyl}-piperazine-1-carboxylic acid (2-trifluoromethyl-phenyl)-amide] | 170 to 171 °C | ≥ 50%
25 | Cc1ccccc1NC(=O)Nc1ccc(N2CCN(C(=O)Nc3c(C)cccc3Cl)CC2)cc1 [Example 127, 4-[4-(3-o-tolyl-ureido)-phenyl]-piperazine-1-carboxylic acid (2-chloro-6-methyl-phenyl)-amide] | > 260 °C (dec.) | ≥ 50%
